# Laboratory results from US11078189B2, “Pharmaceutical compounds” (REVIRAL LIMITED, priority 2017, dated 2021).
# Like-named read-outs stand apart in the source and are kept apart here.
# Columns and labels:
# [1] = target: T1, RSV fusion (pCDNA3.1_A2_F in HEK 293T cells) (Human respiratory syncytial virus A, UniProt P03420); test: RSV fusion assay; assay type: cell-based
# T1 construct: expressed in transfected cells; host or cells: HEK 293T (ECACC 12022001)
# Method: HEK 293T ((ECACC 12022001) cells were cultured in T75 culture flasks in Dulbecco's medium (DMEM) containing 10% Foetal Bovine serum (FBS), 50 units per mL Penicillin and 50 μg/mL Streptomycin and warmed to 37° C. prior to use. The cells were passaged by first washing briefly with 5 mL Phosphate buffered saline (PBS), followed by addition of 2 mL of Trypsin Ethylenediaminetetraacetic acid (EDTA) to detach the cells. Once cells had detached from the flask, 8 mL media was then added to and the cells dispersed via pipetting against the bottom of the flask.
# The cells were counted and diluted to 3×10^5 cells/ml in fresh media. Two T75 flasks were each seeded with 15.6 mL diluted cells, cells were also subcultured at a ratio of between 1:2 and 1:10, to continue the stock. The flasks were then incubated for 24 h at 37° C. and 5% CO2.
# The plasmid DNA (for pFR-Luc and pcDNA3. 1_Gal4/NFKB) to be transfected into the HEK 293T cells was first prepared in serum free media (Opti-MEM, Invitrogen), containing the transfection reagent FuGENE® 6 (Promega). Serum free media was placed in a 1.5 mL eppendorf tube then the FuGENE 6 was added into the media. The tube was vortexed for 1 s before being incubated at RT for 5 min. 7.79 ng of both pFR_luc and pCDNA3.1_A2_F plasmid DNA were added to tube 1 and 7.79 ng of pCDNA3.1_GAL4-NF-κB plasmid to tube 2. The tubes were vortexed for 1 second and then incubated at room temperature for 15 min. Each transfection mixture was then added into the media of one of the T75 flasks of 293T cells. Cells were cultured for 24h at 37° C., 5% CO2 in a humidified incubator.
# Compounds were diluted (in a polypropylene round-bottomed 96 well plate) 1:3 in a twelve point dilution curve to give top [final] of either 25 μM, 3 μM, 1 μM or 500 nM. A control compound was included in every assay at a top concentration of 3 μM. Transfected cells were counted and diluted to 4×10^5 cells/mL in fresh media. 50 μL of transfection population 1 were added to all wells of the 96 well flat bottom white opaque assay plates. 100 μL diluted compound (2 rows per compound), control compound (one row) and controls (DMSO (0% inhibition, four wells), 3 μM positive control (100% inhibition, four wells) and media (transfection population 1 only, four wells) were added to the appropriate wells. 50 μL of the diluted (4×10^5 cells/mL) population 2 cells when then added to all wells, except the four wells of transfection population 1 only where an extra 50 μL of this cells population was added.
# The plates were then incubated for 24 h at 37° C. and 5% CO2. After this time, 100 μL was removed from all wells and 60 μL of ONE-Glo™ (Promega) reagent, pre-equilibrated to room temperature, was added. Plates were then incubated for 3 min at room temperature before luminescence was read, using the ONE-Glo protocol, on the GloMax Explorer System (Promega) multimode reader. Analysis was carried out in Dotmatics software. All raw data were background subtracted (subtraction of mean 3 μM positive control value), before IC50 calculation.
# [2] = Liver microsomal stability, rat; assay type: in vitro ADME; conditions: pooled liver microsomes, pH 7.4; rat liver microsomes 0.5 mg/mL; 3 μM compound; read-out: Liver Microsoinal Stability t1/2, rat
# Method: (§1) Pooled liver microsomes are purchased from a reputable commercial supplier and stored at −80° C. prior to use. Microsomes (final protein concentration 0.5 mg/mL), 0.1 M phosphate buffer pH 7.4 and test compound (final substrate concentration 3 μM; final DMSO concentration 0.25%) are pre-incubated at 37° C. prior to the addition of NADPH (final concentration 1 mM) to initiate the reaction. The final incubation volume is 50 uL. A control incubation is included for each compound tested where 0.1 M phosphate buffer pH 7.4 is added instead of NADPH (minus NADPH). Two control compounds are included with each species. All incubations are performed singularly for each test compound. Each compound is incubated for 0, 5, 15, 30 and 45 min. The control (minus NADPH) is incubated for 45 min only. The reactions are stopped by transferring 20 μL of incubate to 60 μL MeOH at the appropriate time points. The termination plates are centrifuged at 2,500 rpm for 20 min at 4° C. to precipitate the protein. Following protein precipitation, the sample supernatants are combined in cassettes of up to 4 compounds, internal standard is added and samples analysed by LC-MS/MS. From a plot of In peak area ratio (compound peak area/internal standard peak area) against time, the gradient of the line is determined. Subsequently, half-life and intrinsic clearance are calculated.
# [3] = Liver microsomal stability, human; assay type: in vitro ADME; conditions: pooled liver microsomes, pH 7.4; human liver microsomes 0.5 mg/mL; 3 μM compound; read-out: Liver Microsoinal Stability t1/2, human
# Method: as §1
# CYP2C9 = target: T2, CYP2C9 (Homo sapiens, UniProt P11712); test: Cytochrome P450 inhibition CYP2C9; assay type: in vitro ADME; conditions: human liver microsomes
# T2 construct: from tissue; host or cells: human liver microsomes
# Method: (§2) Test compound (0.1, 0.25, 1, 2.5, 10, 25 μM in DMSO; final DMSO concentration 0.3%) was incubated with human liver microsomes (0.25 mg/mL) and NADPH (1 mM) in the presence of a cytochrome P450 isoform-specific probe substrate. The metabolites were monitored by LC-MS/MS and a decrease in the formation of the metabolite compared to the vehicle control used to calculate an IC50 value (test compound concentration which produces 50% inhibition). A cytochrome P450 isoform-specific selective inhibitor was screened alongside the test compounds as a positive control.
# CYP3A4 = target: T3, CYP3A4 (Homo sapiens, UniProt P08684); test: Cytochrome P450 inhibition CYP3A4; assay type: in vitro ADME; conditions: human liver microsomes
# T3 construct: from tissue; host or cells: human liver microsomes
# Method: as §2
# T1 sequence (P03420 26-109): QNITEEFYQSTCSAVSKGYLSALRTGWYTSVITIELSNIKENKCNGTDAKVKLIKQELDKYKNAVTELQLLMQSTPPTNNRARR
# T1 sequence (P03420 137-574): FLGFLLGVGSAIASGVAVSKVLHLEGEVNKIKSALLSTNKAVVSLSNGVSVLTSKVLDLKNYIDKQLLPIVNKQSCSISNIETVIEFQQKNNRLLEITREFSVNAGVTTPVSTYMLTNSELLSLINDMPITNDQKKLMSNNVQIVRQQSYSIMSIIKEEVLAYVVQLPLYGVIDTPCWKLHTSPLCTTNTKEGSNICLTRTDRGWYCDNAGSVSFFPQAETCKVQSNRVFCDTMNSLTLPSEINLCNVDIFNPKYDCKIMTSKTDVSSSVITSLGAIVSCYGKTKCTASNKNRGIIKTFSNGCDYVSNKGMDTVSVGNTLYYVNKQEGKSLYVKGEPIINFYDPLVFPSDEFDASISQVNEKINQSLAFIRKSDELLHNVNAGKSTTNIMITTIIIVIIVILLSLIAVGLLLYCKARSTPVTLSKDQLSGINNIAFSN
# T3 sequence (P08684 whole entry): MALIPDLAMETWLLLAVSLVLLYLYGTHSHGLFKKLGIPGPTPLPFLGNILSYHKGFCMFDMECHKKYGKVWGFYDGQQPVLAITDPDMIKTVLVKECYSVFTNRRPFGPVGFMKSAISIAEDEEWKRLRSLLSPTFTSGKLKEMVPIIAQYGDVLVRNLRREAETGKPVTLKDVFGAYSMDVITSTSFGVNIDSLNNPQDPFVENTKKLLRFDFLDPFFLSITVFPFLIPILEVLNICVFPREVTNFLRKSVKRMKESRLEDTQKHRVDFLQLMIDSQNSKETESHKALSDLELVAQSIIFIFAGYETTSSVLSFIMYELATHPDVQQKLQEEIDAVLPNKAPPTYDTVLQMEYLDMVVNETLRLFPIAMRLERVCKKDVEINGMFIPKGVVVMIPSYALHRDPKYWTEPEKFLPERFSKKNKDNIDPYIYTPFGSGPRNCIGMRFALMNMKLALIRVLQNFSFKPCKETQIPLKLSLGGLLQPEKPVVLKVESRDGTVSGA
# T2 sequence (P11712 whole entry): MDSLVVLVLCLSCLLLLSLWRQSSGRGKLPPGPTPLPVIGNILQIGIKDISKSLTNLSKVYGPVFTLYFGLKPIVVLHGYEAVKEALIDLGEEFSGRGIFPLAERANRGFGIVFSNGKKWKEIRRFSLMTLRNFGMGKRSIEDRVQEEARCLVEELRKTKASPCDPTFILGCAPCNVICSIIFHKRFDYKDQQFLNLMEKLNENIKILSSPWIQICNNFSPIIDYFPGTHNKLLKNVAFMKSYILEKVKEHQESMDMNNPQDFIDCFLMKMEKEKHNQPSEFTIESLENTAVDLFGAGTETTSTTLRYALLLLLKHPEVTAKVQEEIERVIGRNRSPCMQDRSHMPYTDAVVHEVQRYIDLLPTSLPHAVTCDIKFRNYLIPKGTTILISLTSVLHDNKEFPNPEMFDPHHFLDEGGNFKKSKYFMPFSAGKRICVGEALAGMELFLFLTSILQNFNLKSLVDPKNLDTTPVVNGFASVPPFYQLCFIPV
smiles,measurement,setting,value
"CCS(=O)(=O)N1CCC(n2c(CN3C(=O)C4(CC4)c4ccc(F)cc43)nc3cc(Cl)ccc32)CC1 [Compound 35, 1′-({5-Chloro-1-[1-(ethanesulfonyl)piperidin-4-yl]-1H-1,3-benzodiazol-2-yl}methyl)-6′-fluoro-1′,2′-dihydrospiro[cyclopropane-1,3′-indole]-2′-one]",IC50,[1],5 nM
same,half-life at 3 μM,[2],5.5 min
same,half-life at 3 μM,[3],34.6 min
"CS(=O)(=O)N1CCC(n2c(CN3C(=O)C4(CC4)c4ccc(F)cc43)nc3cc(Cl)ccc32)CC1 [Compound 33, 1′-{[5-Chloro-1-(1-methanesulfonylpiperidin-4-yl)-1H-1,3-benzodiazol-2-yl]methyl}-6′-fluoro-1′,2′-dihydrospiro[cyclopropane-1,3′-indole]-2′-one]",IC50,CYP2C9,> 25000 nM
same,IC50,[1],3.3 nM
same,half-life at 3 μM,[2],14.8 min
same,IC50,"CYP3A4; substrate = midazolam, read-out: Cytochrome P450 inhibition IC50 CYP3A4 (midazolam)",674 nM
same,IC50,"CYP3A4; substrate = testosterone, read-out: Cytochrome P450 inhibition IC50 CYP3A4 (testosterone)",3940 nM
same,half-life at 3 μM,[3],486 min
